This note sets out measurements from ChEMBL document CHEMBL1135674, “A new series of estrogen receptor modulators that display selectivity for estrogen receptor beta” (J Med Chem, 2002).

Assay [1] has as its target T1, Estrogen receptor (Homo sapiens, UniProt P03372).
T1 sequence (P03372 whole entry): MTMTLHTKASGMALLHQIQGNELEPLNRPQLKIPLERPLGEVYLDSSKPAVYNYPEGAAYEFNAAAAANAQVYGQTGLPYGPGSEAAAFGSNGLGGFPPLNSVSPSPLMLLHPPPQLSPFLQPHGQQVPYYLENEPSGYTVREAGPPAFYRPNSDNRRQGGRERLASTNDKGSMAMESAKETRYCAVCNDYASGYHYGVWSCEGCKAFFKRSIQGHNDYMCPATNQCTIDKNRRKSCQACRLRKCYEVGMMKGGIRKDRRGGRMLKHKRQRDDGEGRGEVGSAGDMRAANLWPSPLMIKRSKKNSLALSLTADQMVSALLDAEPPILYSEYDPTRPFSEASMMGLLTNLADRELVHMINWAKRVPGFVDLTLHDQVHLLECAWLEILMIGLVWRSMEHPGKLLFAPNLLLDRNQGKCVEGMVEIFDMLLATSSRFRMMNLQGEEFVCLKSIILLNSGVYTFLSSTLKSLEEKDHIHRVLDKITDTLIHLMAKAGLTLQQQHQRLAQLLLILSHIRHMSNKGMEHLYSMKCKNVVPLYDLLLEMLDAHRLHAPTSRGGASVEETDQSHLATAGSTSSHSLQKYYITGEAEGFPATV

The target in assay [2] is T2, Estrogen receptor beta (Homo sapiens, UniProt Q92731).
Assay [3] concerns the target T2, Estrogen receptor beta. The settings on record: T47D.
Assay [4] concerns the target T1, Estrogen receptor. This is another data set of the same source.
The target of assay [5] is T1, Estrogen receptor. This is another data set of the same source.
Assay [6] addresses T2, Estrogen receptor beta. The source holds these as a separate data set.
Assay [7] addresses T2, Estrogen receptor beta. The settings on record: T47D, 10e-4 M.

Activity calls are given as the source filed them. The calls are words filed in the database; no cut-off is given here.

T2 sequence (Q92731 whole entry): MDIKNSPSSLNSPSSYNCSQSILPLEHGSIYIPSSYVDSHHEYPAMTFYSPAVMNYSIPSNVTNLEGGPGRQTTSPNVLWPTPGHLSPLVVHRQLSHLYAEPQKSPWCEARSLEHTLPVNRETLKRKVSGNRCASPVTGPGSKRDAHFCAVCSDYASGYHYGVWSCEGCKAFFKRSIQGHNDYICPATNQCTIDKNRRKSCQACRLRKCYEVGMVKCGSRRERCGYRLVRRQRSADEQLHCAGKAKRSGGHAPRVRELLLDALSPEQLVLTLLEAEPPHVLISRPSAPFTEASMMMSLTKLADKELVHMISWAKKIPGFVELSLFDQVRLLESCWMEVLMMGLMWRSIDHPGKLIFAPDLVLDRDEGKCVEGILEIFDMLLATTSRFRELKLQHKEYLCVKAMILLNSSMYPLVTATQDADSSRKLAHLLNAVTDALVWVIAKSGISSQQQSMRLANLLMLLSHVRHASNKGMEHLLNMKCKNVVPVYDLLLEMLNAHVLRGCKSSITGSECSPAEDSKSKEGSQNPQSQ

What is called IC50 is the concentration that gives 50% inhibition. Lower therefore signals greater potency. As a reminder, the EC50 is the concentration needed to bring the measured effect to its halfway point. The term Ki denotes a dissociation constant, usually derived from enzyme kinetics or from competition with a known ligand. Low readings indicate a stronger hold on the target, high ones a looser hold on the target. With `CN(CCCc1ccc(Cl)cc1)c1nc(NCCc2ccc(O)cc2)nc(N2CCNCC2)n1`, the IC50 against Estrogen receptor [1] came out at 110 nM; at Estrogen receptor beta [2], 5 nM. Also, the IA result on Estrogen receptor beta [3] was “inactive”. At Estrogen receptor [4], the EC50 stood at 180 nM. Further, the Ki at Estrogen receptor [5] is 300 nM; on Estrogen receptor beta [6] it was 15 nM.

As to `O=C(c1ccc(OCCN2CCCCC2)cc1)c1c(-c2ccc(O)cc2)sc2cc(O)ccc12`, the IA entry on Estrogen receptor beta [7] is “inactive”.
